Test results: patent US11628186B2, “Method and composition for the reduction of viral replication, duration and spread of the COVID-19 and the flu” (priority 2017, dated 2023)

Tests used:
[1] = tested on: subjects diagnosed with Severe COPD requiring supplemental oxygen; experiment: SaO2 pilot study, single inhalation dose, blinded cross-over; assay type: in vivo, human
Procedure: A total of five (5) subjects diagnosed with Severe COPD (chronic bronchitis or emphysema) and requiring supplemental oxygen at rest were enrolled in this study at the University of Connecticut. Each subject received a single inhalation dose of either 0.5 mM sodium pyruvate, 5.0 mM sodium pyruvate or 0.9% sodium chloride at each Study Visit. The dose was administered in a blinded cross-over manner at 1 week intervals; such that all subjects received each study compound. Safety and therapeutic efficacy were evaluated by the following measurements: spirometry, expired breath NO level, SaO2, vital signs, and follow-up telephone interviews.
The study was conducted in four visits: a Screening Visit and Study Visits 1-3. The effect of the inhalation of a single dose of sodium pyruvate (0.5 mM and 5.0 mM) or placebo (0.9% sodium chloride) was studied in a double-blind protocol. The primary efficacy outcome objective was the SaO2 levels for all subjects. In addition, COPD subjects were evaluated by lung function (FEV1 and PEF) and expired breath NO levels obtained just prior to and then at 60 minutes and at 3 hours in the second study, following the administration of the particular sodium pyruvate dose.

[2] = tested on: patients with lung diseases including COPD; experiment: Comparison of inhaled salts of pyruvate, 5 ml of 0.5 mM solution (Table I)
[3] = tested on: isolated perfused rat lungs; experiment: Incorporation of [2-(14)C] labeled pyruvate into lung surfactants; conditions: inhalation studies, without calcium, phosphate and magnesium
[4] = tested on: patients with sinus & lung diseases including IPF and COPD; experiment: Salts of pyruvate as 20 mM nasal sprays (Table IX)
Excerpt: They never tested the individual salts for their ability to reduce inflammation or increase lung functions.

[5] = tested on: patients with Allergic Rhinitis other lung diseases; experiment: Two-year log of 367 patients using the 20 mM sodium pyruvate nasal spray (Table XIII); assay type: in vivo, human; conditions: healthy patients with no underlying diseases; 20 mm in at least 0.9% sodium chloride
Procedure: Table XIII. 367 patients over a two-year period. Each patient was provided with a log page to record the effect of inhaled 20 mM sodium pyruvate surfactant enhancer formula. The FDA has recommended that we do a phase three clinical for Allergic Rhinitis for patients where steroids are counter indicated i.e. Children, pregnant women and diabetics. Percentage measurements in patients with Allergic Rhinitis other lung diseases. 20 mM sodium pyruvate formula in 0.9% saline […] was inhaled. Overall rating was 1-10 with 1 being the most negative and 10 being the best result. The increase in nasal and lung surfactants and nasal and lung nitric oxide inhibited the docking and adhesion of viruses in the patients listed below with especially in patients with diabetes or hypoxemia. All these viruses including coronavirus, the flu (influenza A or B) and rhinovirus were unable to dock on the ACE2 type receptor and reduced the rate, severity, duration and spread of the viruses.

[6] = tested on: Asthmatic and COPD patients; experiment: Phase I/II clinical trials of sodium pyruvate in saline by inhalation; assay type: in vivo, human
[7] = 5 ml of 0.5 mM solution, inhaled
[8] = 20 mM (0.22%) nasal spray in 0.9% sodium chloride
[9] = 5 ml of the 0.5 mM solution in saline

## CC(=O)C(=O)[O-].[Na+] [Sodium, sodium pyruvate]
[1]; 0.5 mM and 5.0 mM single dose
  Adverse Events: no Adverse Events
[1]; 5 mM inhaled solution
  Nitric oxide levels increased: 19%
[1]; single inhalation of 0.5 mM or 5.0 mM in saline
  change in the FEV1 or SaO2 compared to pre inhalation values: No significant change
[2]; 5 ml of 0.5 mM solution in physiological saline, inhaled
  Increased in FEV-1% lung function: 13.0%
[2]; [7]
  Irritation: none
  Percentage Increase in SaO2 over baseline: 0.5%
  Percentage decrease or increase of Nitric Oxide over baseline: −19.0%
  Relief of congestion, coughing and lung tightness: 5
[2]; 5 ml of 0.5 mM solution, 1 most negative, 10 best
  Overall Rating 1-10: 8
[2]; 5 mls of a 0.5 mM pyruvate inhalation solution in COPD and asthmatic patients
  FEV1: ≥ 12%
[3]
  incorporation into synthesized phospholipids: not incorporated into synthesized phospholipids
[4]; [8]
  Increased in FEV-1%: 12.0%
  Irritation: none
  Percentage Increase in SaO2 over baseline: 2%
  Percentage increase of Nitric Oxide over baseline: 19.0%
  Relief of congestion, coughing and lung tightness: 6
[4]; 20 mM (0.22%) nasal spray, 1 most negative, 10 best
  Overall Rating 1-10: 7
[5]
  amount of flu or colds reduced: 52%
  duration of the infection symptoms in days reduced: 56%
[6]; [9]
  increasing FEV1 values: over 12%
  reducing nitric oxide: 19.2%
[6]; higher concentrations 1.5 mM or 5.0 mM in saline
  FEV1 values: did not increase FEV1 values
[6]; solutions of 1.5 to 5 mM
  increase nitric oxide levels: 19%
